For one experiment, the system named is caspase-8. Put plainly: Caspase-8 activity in A549 cell lysates, fluorometric assay. It is filed as cell-based, human. The note with it: A549 cells, 100 nM; maximal at 16 and 24 h. The procedure: (§1) The specificity of the activity of each caspase substrate was also verified by assays in the presence of specific inhibitors. […] Caspase-3 activity was measured by a fluorometric assay using Ac-DEVD-AFC (Acetylated-Asp-Glu-Val-Asp-7-amino-4-trifluoromethylcoumarin) (SEQ ID NO: 9) as a specific substrate for caspase-3 and Z-DEVD-CHO as a selective caspase-3 inhibitor. Caspase-8 activity was measured by a fluorometric assay using Ac-LETD-AFC (Acetylated-Leu-Glu-Thr-Asp-7-amino-4-trifluoromethylcoumarin) (SEQ ID NO: 10) as a specific substrate and Z-LETD-CHO as a selective caspase-8 inhibitor. The data are presented as relative fluorescence units (RFU).

Experiment [1] has as its system chorioallantoic membrane (CAM). Briefly: Chorioallantoic membrane (CAM) assay of neovascularization. Format: in vivo, chicken. The procedure: Chicken eggs were incubated for four days in constant humidity at 37° C. […] The extent of neovascularization was quantified by counting branch points, as illustrated in FIG. 14 showing about a 50% reduction in branch points. No difference was found in the number of branch points between the two groups prior to treatment with Ang-(1-7).

Experiment [2] concerns SK-MES-1 lung cancer cells. It is filed as cell-based, human.
Description: (§3) Unless otherwise stated, cells were grown in DMEM with 10% fetal bovine serum (FBS), 100 μg/mL penicillin and 100 units/mL streptomycin in a humidified 37° C. incubator gassed with 5% CO2 and 95% room air. Cells were grown to subconfluence in either 24-well cluster plates or 100 mm dishes and made quiescent by treatment for 48 h with serum-depleted growth media, prior to the experiments outlined below to measure cell growth (^3H-thymidine incorporation), cell signaling or apoptosis.
(§4) Subsequently, the cell monolayer was washed with cold phosphate-buffered saline (PBS; 50 mM NaPO4, 120 mM NaCl, pH=7.2). The adherent cells were precipitated with cold 10% TCA (4° C. for 30 min) and dissolved in 0.2% SDS in 0.1 N NaOH. Incorporated ^3H-thymidine was determined by liquid scintillation spectrometry, as previously described (Freeman, E. J. et al., Hypertension, 1996, 28:104-108). Growth inhibition was defined as a reduction in the amount of ^3H-thymidine incorporation as compared to the mitogen-stimulated controls.
Another experiment deals with ERK2. The note with it: SK-LU-1, 10 nM pretreatment; Gallagher et al., 2004; cited from earlier work.
The test system of a further experiment is COX-2. Briefly: COX-2 protein (Western blot) and mRNA (RT real-time PCR) in A549 cells. Format: cell-based, human. On the procedure:
(§2) For reverse-transcriptase real-time PCR, RNA was isolated from cells or tissue, using the TRIzol reagent (GIBCO Invitrogen Corp., Carlsbad, Calif.), as directed by the manufacturer. The RNA concentration and integrity were assessed using an Agilent 2100 Bioanalyzer with an RNA 6000 nano LabChip (Agilent Technologies, Palo Alto, Calif.). Approximately 1 μg of total RNA was reverse transcribed using avian myeloblastosis virus reverse transcriptase (RT) in a 20 μL mixture containing deoxyribonucleotides, random hexamers and RNase inhibitor in RT buffer. Heating the RT reaction product at 95° C. terminated the reaction. For real-time polymerase chain reaction (PCR), 2 μL of the resultant cDNA was added to TaqMan Universal PCR Master Mix (Applied Biosystems, Foster City, Calif.) with a gene-specific primer/probe set (Applied Biosystems, Foster City, Calif.) and amplification was performed on an ABI 7000 Sequence Detection System. […] The results were quantified as Ct values, where Ct is defined as the threshold cycle of PCR at which amplified product is first detected, and expressed as the ratio of target/control (Relative Gene Expression).
Quiescent A549 lung cancer cells or tumor tissue cut into approximately 1-2 mm^2 size pieces were homogenized in phosphate-buffered saline (PBS; 50 mM NaPO4, pH=7.2, 100 mM NaCl). […] The protein concentration was measured by a modification of the Lowry method. […]
A general note: A western blot detects proteins with antibodies after separation by electrophoresis.

The subject of experiment [3] is poly(ADP-ribose) polymerase (PARP). Put plainly: Cleaved PARP (caspase-3 cleavage product) in serum-stimulated SK-LU-1 cells. The note with it: SK-LU-1, 10 nM, 4 to 8 hour treatment. It is filed as cell-based, human. On the procedure: Proteins were separated electrophoretically on SDS polyacrylamide gels, transferred to polyvinyl membranes, and incubated with primary antibodies to proteins of interest. Appropriate horseradish peroxidase (HRP)-conjugated second antibodies were added and immunoreactive products visualized using the enhanced chemoluminescence reagents from Amersham. The density of each immunoreactive product was quantified using the MCID imaging system. Antibodies to proteins that participate in cell signaling, apopotosis, and regulation of the cell cycle are commercially available from a variety of sources.
Since caspase-3 is activated during apoptosis, an increase in the generation of its […] can be a measure of apoptosis.

Another experiment deals with caspase-3. Briefly: Caspase-3 activity in A549 cell lysates, fluorometric assay. It is filed as cell-based, human. The note with it: A549 cells, 100 nM; maximal at 16 and 24 h. The procedure:
as §1

The test system of another experiment is COX-1 mRNA. Briefly: COX-1 mRNA in A549 cells. It is filed as cell-based, human. The note with it: quiescent A549 cells, 100 nM, 2, 4, or 8 h. The procedure: as §2, with “System. The mixtures were heated at 50° C. for 2 min, at 95° C. for 10 min followed by 40 cycles at 95° C. for 15 sec and 60° C. for 1 min.” for “System.”
The test system of a further experiment is A549 lung cancer cells. Put plainly: Serum-stimulated ^3H-thymidine incorporation, A549. It is filed as cell-based, human. The note with it: A549, 1% FBS, daily addition of 100 nM. Background: Incorporation of labelled thymidine or its analogues reports DNA synthesis.

SMILES strings stand for the structures.

The term IC50 denotes the concentration that inhibits the measured activity by half. A lower IC50 goes with greater potency.

Description for A549 lung cancer cells: as §3, §4

On to `CC[C@H](C)[C@H](NC(=O)[C@H](Cc1ccc(O)cc1)NC(=O)[C@@H](NC(=O)[C@H](CCCNC(=N)N)NC(=O)[C@@H](N)CC(=O)O)C(C)C)C(=O)N[C@@H](Cc1c[nH]cn1)C(=O)N1CCC[C@H]1C(=O)O` [Ang-(1-7), Asp-Arg-Val-Tyr-Ile-His-Pro], for which the “time-dependent increase in caspase-8 activity” value with caspase-8 is “about 2 fold”. Further, the “neovascularization, branch points” value in experiment [1] (10 nM, 48 hour incubation, n=4, control 58.0±3.6 (n=3)) amounted to 29.5±3.6 branch points. Also, the “reduction in branch points” value in experiment [1] (100 nM, 2-day incubation, FIG. 14) is recorded as ~50%. In experiment [2] (48 h), this molecule came in with an IC50 of 0.4 nM. Further, the “^3H-thymidine incorporation over time of treatment” value in [2] (SK-MES-1, 1% FBS, daily addition of 100 nM) is “progressively reduced”; with A549 lung cancer cells, “progressively reduced”. The “reduction of serum-stimulated phosphorylation of ERK2” value in the experiment with ERK2 is listed as 68%. Moreover, the “COX-2 mRNA” value with COX-2 (100 nM, 2, 4 and 8 h) is “significant reduction”. Also, the COX-2 protein entry in the experiment with COX-2 (100 nM, 8-h treatment) is on record as “marked decrease”. In [3], the “amount of cleaved PARP” value is “increase”. For the same molecule, the “time-dependent increase in caspase-3 activity” value in the experiment on caspase-3 is on record as “about 2 fold”. Besides, in the experiment on COX-1 mRNA, the “COX-1 mRNA” value is “no change”.

Source of the values: US20140296143A1, “Angiotensin-(1-7) As A Chemoprevention Agent” (Wake Forest Innovations, priority 2008, published 2014).
